According to ChEMBL document CHEMBL1133956, “Antagonists of the human CCR5 receptor as anti-HIV-1 agents. Part 3: a proposed pharmacophore model for 1-[N-(methyl)-N-(phenylsulfonyl)amino]-2-(phenyl)-4-[4-(substituted)piperidin-1-yl]butanes” (Bioorg Med Chem Lett, 2001):

These compounds were tested against T1, C-C chemokine receptor type 5 (Homo sapiens, UniProt P51681) (assay: Inhibition of [125I]-MIP-1 alpha binding to human CCR5 receptor expressed in Chinese hamster ovary (CHO) cells at 1000 nM;).
Type: cell-based
Target sequence in this assay (P51681 whole entry, looked up): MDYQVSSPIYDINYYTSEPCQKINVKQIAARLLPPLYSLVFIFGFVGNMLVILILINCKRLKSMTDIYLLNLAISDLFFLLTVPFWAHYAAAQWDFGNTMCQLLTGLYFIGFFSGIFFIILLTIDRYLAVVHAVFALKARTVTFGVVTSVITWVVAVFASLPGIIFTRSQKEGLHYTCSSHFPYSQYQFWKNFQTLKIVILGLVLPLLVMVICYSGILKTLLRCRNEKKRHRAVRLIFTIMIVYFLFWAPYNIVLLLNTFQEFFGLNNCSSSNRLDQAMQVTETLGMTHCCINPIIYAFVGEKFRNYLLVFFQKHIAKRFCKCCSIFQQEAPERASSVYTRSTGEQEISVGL

SMILES	inhibition
CN(C[C@@H](CCN1CCC2(CC1)CC(=O)c1ccccc1O2)c1cccc(Cl)c1)S(=O)(=O)c1ccccc1	24%

These compounds were tested against T1, C-C chemokine receptor type 5 (assay: Inhibition of [125I]-MIP-1 alpha binding to human CCR5 receptor expressed in Chinese hamster ovary (CHO) cells).
Type: cell-based
Target sequence in this assay (P51681 whole entry): as the sequence (P51681 whole entry, looked up) above

SMILES	IC50
CN(C[C@@H](CCN1CCC(Cc2ccccc2)CC1)c1cccc(Cl)c1)S(=O)(=O)c1ccccc1	250 nM
Cc1ccccc1C1CCN(CC[C@H](CN(C)S(=O)(=O)c2ccccc2)c2cccc(Cl)c2)CC1	400 nM
CN(C[C@@H](CCN1CCC2(CC1)Cc1ccccc1O2)c1cccc(Cl)c1)S(=O)(=O)c1ccccc1	260 nM
CN(C[C@@H](CCN1CCC(CCc2ccccc2)CC1)c1cccc(Cl)c1)S(=O)(=O)c1ccccc1	65 nM
CN(C[C@@H](CCN1CCC(c2cccc(C(F)(F)F)c2)CC1)c1cccc(Cl)c1)S(=O)(=O)c1ccccc1	120 nM
CN(C[C@@H](CCN1CCC(c2ccc(Cl)cc2)CC1)c1cccc(Cl)c1)S(=O)(=O)c1ccccc1	200 nM
CN(C[C@@H](CCN1CCC(c2ccc(F)cc2)CC1)c1cccc(Cl)c1)S(=O)(=O)c1ccccc1	25 nM
CN(C[C@@H](CCN1CCC(CCCc2ccccc2)CC1)c1cccc(Cl)c1)S(=O)(=O)c1ccccc1	5 nM
COc1ccccc1C1CCN(CC[C@H](CN(C)S(=O)(=O)c2ccccc2)c2cccc(Cl)c2)CC1	70 nM
CN(C[C@@H](CCN1CCC2(CC1)CC(=O)c1ccccc12)c1cccc(Cl)c1)S(=O)(=O)c1ccccc1	5 nM
CN(C[C@@H](CCN1CCC2(CC1)CC(O)c1ccccc12)c1cccc(Cl)c1)S(=O)(=O)c1ccccc1 (some centres not stated)	100 nM
CN(C[C@@H](CCN1CCN(c2ccccc2)CC1)c1cccc(Cl)c1)S(=O)(=O)c1ccccc1	700 nM
CN(C[C@@H](CCN1CCC2(CCc3ccccc32)CC1)c1cccc(Cl)c1)S(=O)(=O)c1ccccc1	180 nM
CN1C(=O)c2ccccc2C12CCN(CC[C@H](CN(C)S(=O)(=O)c1ccccc1)c1cccc(Cl)c1)CC2	100 nM
CN(C[C@@H](CCN1CCC2(CC1)CNC(=O)c1ccccc12)c1cccc(Cl)c1)S(=O)(=O)c1ccccc1	35 nM
CN(C[C@@H](CCN1CCC2(CC1)CNc1ccccc12)c1cccc(Cl)c1)S(=O)(=O)c1ccccc1	50 nM
CN(C[C@@H](CCN1CCC2(CC1)CC(=O)Nc1ccccc12)c1cccc(Cl)c1)S(=O)(=O)c1ccccc1	35 nM
Cc1ccccc1N1CCN(CC[C@H](CN(C)S(=O)(=O)c2ccccc2)c2cccc(Cl)c2)CC1	2400 nM
CN(C[C@@H](CCN1CCC2(CC1)NC(=O)c1ccccc12)c1cccc(Cl)c1)S(=O)(=O)c1ccccc1	45 nM

What follows are compounds tested against T1, C-C chemokine receptor type 5 (assay: Inhibition of [125I]-MIP-1 alpha binding to human CCR5 receptor expressed in Chinese hamster ovary (CHO) cells; completely inactive).
Type: cell-based
Target sequence in this assay (P51681 whole entry): as the sequence (P51681 whole entry, looked up) above

SMILES	IC50
CN(C[C@@H](CCc1ccc(-c2ccccc2)cc1)c1ccc(Cl)c(Cl)c1)S(=O)(=O)c1ccccc1	> 10000 nM
CN(C[C@@H](CCNCCc1ccccc1)c1cccc(Cl)c1)S(=O)(=O)c1ccccc1	> 10000 nM
CN(CCc1ccccc1)CC[C@H](CN(C)S(=O)(=O)c1ccccc1)c1cccc(Cl)c1	> 10000 nM
CN(C[C@@H](CCc1ccc(-c2ccccc2)cn1)c1ccc(Cl)c(Cl)c1)S(=O)(=O)c1ccccc1	> 10000 nM

Each compound was assayed against T1, C-C chemokine receptor type 5 (assay: Inhibition of [125I]-MIP-1 alpha binding to human CCR5 receptor expressed in Chinese hamster ovary (CHO) cells at 1000 nM).
Type: cell-based
Target sequence in this assay (P51681 whole entry, looked up): as above

SMILES	inhibition
CN(C[C@@H](CCN1CCCCC1)c1cccc(Cl)c1)S(=O)(=O)c1ccccc1	27%
CN(C[C@@H](CCN1CCC(C(C)(C)C)CC1)c1cccc(Cl)c1)S(=O)(=O)c1ccccc1	40%
CN(C[C@@H](CCN1CCC2(CC1)CN(S(C)(=O)=O)c1ccccc12)c1cccc(Cl)c1)S(=O)(=O)c1ccccc1	12%
